From article PMC6630668, “Comprehensive Analysis of Secondary Metabolites in Usnea longissima (Lichenized Ascomycetes, Parmeliaceae) Using UPLC-ESI-QTOF-MS/MS and Pro-Apoptotic Activity of Barbatic Acid” (Molecules, 2019)

Assays:
[1] = tested on: HEK-293 (Normal cell line, Human embryonic kidney); test: MTT cytotoxicity assay, HEK-293; type: cell-based; conditions: compounds
Method: (§1) MTT assay was performed as described earlier. Cells were plated at a density of 1 × 10^4 cells/well in 100 µL Dulbecco’s Modified Eagle Medium (DMEM)/Minimum Essential Media (MEM) medium, supplemented with 10% FBS in 96-well plates for 24 h. After incubation, cells were treated with standard doxorubicin and test compounds for 48 h. After 48 h of treatment, 10 µL MTT (3-(4,5-dimethylthiazol-2 yl)-2,5-diphenyl tetrazolium bromide) (5 mg/mL) were added to each well and the plates were further incubated for 4 h. After 4 h, 100 µL DMSO was added to each well and absorbance at 570 nm wavelength was recorded spectrophotometrically.

[2] = tested on: MCF-7 (Human breast cancer); test: MTT cytotoxicity assay, MCF-7; type: cell-based; conditions: MCF7, 50% cell proliferation inhibitory concentration after 48 h of compound treatment, compounds
Method: as §1

A549 (Human lung cancer) = test: MTT cytotoxicity assay, A549; type: cell-based; conditions: 50% cell proliferation inhibitory concentration after 48 h of compound treatment, compounds
Method: as §1

[3] = tested on: HeLa (Human cervical cancer); test: MTT cytotoxicity assay, HeLa; type: cell-based; conditions: 50% cell proliferation inhibitory concentration after 48 h of compound treatment, compounds
Method: as §1

[4] = tested on: DU-145 (Human prostate cancer); test: MTT cytotoxicity assay, DU-145; type: cell-based; conditions: 50% cell proliferation inhibitory concentration after 48 h of compound treatment, compounds
Method: as §1

[5] = tested on: Poly (ADP-ribose) polymerase (PARP); test: Immunoblot assay for PARP cleavage; type: cell-based, human; conditions: A549, 21 at 1 and 2 µM for 48 h; doxorubicin 1 µM
Text: (§2) Following treatments, cells were washed twice with PBS and lysed in 1× SDS sample buffer. Proteins were separated on 10% SDS-polyacrylamide gels and transferred onto nitrocellulose membranes. Membranes were washed twice with tween Tris-buffered saline before blocking nonspecific binding with 5% nonfat dry milk (Blotto, Santa Cruz Biotechnology, Dallas, TX, USA) or 3% bovine serum albumin. Anti-Poly ADP-ribose Polymerase (PARP) (11835238001-Roche) antibody, that detects total and cleaved PARP was used at 1:1000 dilutions, and membranes were incubated for 2 h at room temperature. Anti-Cyclin D1 (C7464, Sigma Aldrich) and anti-CDK4 (SAB140559, Sigma Aldrich) were detected similar to PARP protein. Membranes were washed three times, and detection was performed using horseradish peroxidase-conjugated secondary antibody as described previously.

A549 cells [6] = test: Annexin V-FITC assay for apoptosis; type: cell-based, human; conditions: A549, 24 h; for total apoptosis: control 1.12%
Method: A549 cells were seeded in six-well plates and incubated for 24 h. After incubation, cells were treated with doxorubicin at 2 µM and compound 21 at 1 and 2 µM concentrations and further incubated for 24 h. After 24 h treatment, cells were harvested by trypsinization. After harvesting, cells were washed with PBS at 5000 rpm. After washing, cells were stained with Annexin-V and propidium iodide using Annexin-V apoptosis detection kit (Sigma-Aldrich). Annexin V-FITC assay was performed as described earlier.

CDK4 and Cyclin D1 = test: Immunoblot assay for CDK4 and Cyclin D1; type: cell-based, human; conditions: A549, 21 at 1 and 2 µM for 48 h; doxorubicin 1 µM
Text: as §2

caspase-3 = test: Caspase-3 assay (fluorimetric, Ac-DEVD-AMC); type: cell-based, human; conditions: A549, 2 µM
Method: Following treatment, cell lysates were washed twice with phosphate-buffered saline and dissolved in lysis buffer (50 mM HEPES (pH 7.4) containing 5 mM CHAPS and 5 mM DTT) for 15 min on ice. Later, cells were centrifuged at 14,000× g for 15 min, under cold conditions, and collected the clear supernatant. The supernatant was added to assay buffer (20 mM HEPES (pH 7.4), 2 mM EDTA, 0.1% CHAPS, and 5 mM DTT) containing caspase 3 substrate (Ac-DEVD-AMC, 40 μM) in a final volume of 100 μL as described earlier. The incubation was performed for 1 h at 37 °C with readings recorded at 5-min intervals. Fluorescence released by AMC was measured at 360-nm and 460-nm excitation and emission wavelengths, respectively. Values were normalized to protein concentration and expressed as fold change of activity relative to DMSO control.

A549 cells [7] = test: Cell cycle analysis by flow cytometry; type: cell-based, human; conditions: A549, 24 h
Method: Flow cytometric analysis (FACS) was performed to evaluate the cell cycle arrest. A549 cells were seeded, incubated for 24 h and then treated with doxorubicin at 2 µM and compound 21 at 1 and 2 µM concentrations for 24 h. After that, cells were harvested and washed with phosphate buffered saline (PBS) followed by fixation in ice cold 70% ethanol. After fixation cells were incubated with RNase A (0.1 mg/mL) at 37 °C for 30 min and stained with propidium iodide (Sigma Aldrich, St. Louis, MO, USA) (50 μg/mL) for 30 min on ice in dark. Cell cycle analysis was performed by flow cytometry (Becton Dickinson FACS Caliber instrument).

human cancer cell lines = test: MTT cytotoxicity assay, panel of cancer cell lines; type: cell-based; conditions: HeLa, MCF-7 and DU-145, range over the cell lines, read-out: IC50 on additional cancer cell lines
Method: as §1

A549 cells [8] = test: Hoechst staining for apoptosis; type: cell-based, human; conditions: A549, 1 and 2 µM, 48 h
Method: A549 cells were seeded on cover slips and incubated for 24 h. After incubation, cells were treated with doxorubicin at 2 µM and compound 21 at 1 and 2 µM concentrations for 48 h. After 48 h treatment, Hoechst staining was performed using H33258 dye. Florescence images were captured by Olympus microscope using 10X lens.

[9] = Homo sapiens, 2 µM, read-out: live (viable) cells (LL)
[10] = Homo sapiens, HEK293, 48 h, after 48 h of compound treatment

PARP cleavage (in words) [5]	SMILES	IC50 [2] [µM]	IC50 (A549 (Human lung cancer)) [µM]	IC50 [3] [µM]	IC50 [4] [µM]	early apoptotic cells (LR) (A549 cells [6]; 2 µM) [%]	late apoptotic cells (UR) (A549 cells [6]; 2 µM) [%]	necrotic cells (UL) (A549 cells [6]; 2 µM) [%]	viability at 2 µM (A549 cells [6]; [9]) [%]	CDK4 and Cyclin D1 protein levels (in words) (CDK4 and Cyclin D1)	IC50 [1, 10] [µM]	further results
–	CC(=O)C1=C(O)C=C2Oc3c(C(C)=O)c(O)c(C)c(O)c3C2(C)C1=O (single isomer, unassigned; (+)) [compound 22, (+)-usnic acid]	19.2 ± 2.05	13.8 ± 1.11	18.9 ± 2.06	24.2 ± 0.99	–	–	–	–	–	–	IC50 ([1]; Homo sapiens, HEK293, after 48 h of compound treatment): 125 ± 1.98 µM
robust cleavage of PARP protein	COc1cccc2c1C(=O)c1c(O)c3c(c(O)c1C2=O)C[C@@](O)(C(=O)CO)C[C@@H]3O[C@H]1C[C@H](N)[C@H](O)[C@H](C)O1 [Doxorubicin, doxorubicin, reference compound]	1.62 ± 0.36	1.95 ± 0.97	1.55 ± 1.32	1.51 ± 0.84	22.3	9.79	0.12	67.8	accumulated	–	–
–	C[C@@H]1C(=O)OC(CCCCCCCCCCCCC[C@@H](C)O)C1C(=O)O (stereo partly drawn) [compound 19, 18R-hydroxy-dihydroalloprotolichesterinic acid]	20 ± 0.74	20.2 ± 1.99	22.7 ± 0.97	27 ± 2.92	–	–	–	–	–	55.9 ± 1.55	–
–	CC1=C(C(=O)O)[C@H](CCCCCCCCCCCCCC(C)O)OC1=O (stereo partly drawn) [compound 20, neuropogolic acid]	22.3 ± 4.05	19.1 ± 3.86	23.6 ± 0.74	26.1 ± 1.09	–	–	–	–	–	113 ± 3.82	–
robust cleavage of PARP protein	COc1cc(C)c(C(=O)Oc2cc(C)c(C(=O)O)c(O)c2C)c(O)c1C [compound 21, barbatic acid]	3.16 ± 0.88	1.78 ± 0.62	3.02 ± 0.11	9.03 ± 2.11	9.05	0.24	0.07	90.6	accumulated	> 100	caspase-3 activity (in words) (caspase-3): increased maximally; IC50 ([1]; after 48 h of compound treatment): 125 ± 2.65 µM; cell accumulation in G0/G1 phase (A549 cells [7]; 1 µM): 70.9%; cell accumulation in G0/G1 phase (A549 cells [7]; 2 µM): 74.4%; early apoptotic cells (LR) (A549 cells [6]; 1 µM): 7.68%; late apoptotic cells (UR) (A549 cells [6]; 1 µM): 0.10%; necrotic cells (UL) (A549 cells [6]; 1 µM): 0.00%; total apoptosis (A549 cells [6]; 1 µM): about 7.78%; total apoptosis (A549 cells [6]; 2 µM): ~9.29%; viability at 1 µM (A549 cells [6]; Homo sapiens, 1 µM, read-out: live (viable) cells (LL)): 92.2%; IC50 (human cancer cell lines): 3.02 to 9.03 µM; Hoechst staining, nuclear morphology (in words) (A549 cells [8]): chromatin condensation and fragmented nuclei
